{"source": "patent US11672758B2", "about": "“Endoxifen methods and compositions for inhibition of protein kinase C” (Jina Pharmaceuticals, Inc., priority 2006, dated 2023)", "key": {"[1]": {"details": "cited from earlier work"}, "male Balb/c mice": {"test_system": "male Balb/c mice", "experiment": "Toxicity testing, intravenous single and repeat dose in mice", "assay_type": "in vivo", "description": "Endoxifen was formulated according to Example 6 and was tested for toxicity in male Balb/c mice. A single test dose at 100 mg/kg or 50 mg/kg was intravenously administered to mice. […] The mice also survived in the control group with a vehicle control that lacked endoxifen. Repeat dose toxicity study was conducted with a dose of 25 mg/kg administered consecutively for 3 days with accumulated dose of 75 mg/kg. […] The results are reported in the table below as the number of mice surviving per total."}, "PKC": {"test_system": "PKC", "experiment": "PKC kinase activity assay kit (Assay Designs)", "assay_type": "biochemical", "details": "for percentage PKC inhibition: PKC 10 ng/well", "description": "A PKC kinase activity assay kit (Assay Designs, Ann Arbor, Mich.) was used to test endoxifen PKC inhibitory activity 0.025, 0.05, 0.1, or 0.2 mM endoxifen was used in a reaction mix containing PKC 10 ng/well."}, "[2]": {"experiment": "Comparative pharmacokinetic study in rats", "assay_type": "in vivo", "details": "oral 10 mg/kg endoxifen versus 10 mg/kg tamoxifen"}, "patients": {"test_system": "patients", "details": "patients on raloxifene for osteoporosis; cited from earlier work"}, "Parkinsonian monkeys": {"test_system": "Parkinsonian monkeys", "details": "co-administered with levodopa to Parkinsonian monkeys; cited from earlier work"}}, "note": "“And” between values parts separate entries of the source, which are not always exact repeats. Identical values can stand only once. Like-named read-outs stand apart in the source and are kept apart here.", "data": [{"molecule": "4-hydroxy tamoxifen [4-OH-tamoxifen, reference compound]", "values": [{"measurement": "concentration in the human plasma", "setting": "[1]; human, in vivo", "result": 1, "unit": "ng/mL"}]}, {"molecule": "CC/C(=C(\\c1ccc(O)cc1)c1ccc(OCCNC)cc1)c1ccccc1", "note": "[Endoxifen, 4-hydroxy N-desmethyl tamoxifen]", "values": [{"measurement": "Survival/Total", "setting": "male Balb/c mice; repeat dose 25 mg/kg consecutively for 3 days, accumulated dose 75 mg/kg", "result": "4/4"}, {"measurement": "loss of body weight", "setting": "male Balb/c mice; single dose 50 mg/kg intravenous", "result": "no significant loss of body weight"}, {"measurement": "Survival/Total", "setting": "male Balb/c mice; single dose 50 mg/kg intravenous, formulated according to Example 6, 50 mg/kg", "result": "all animals survived and 4/4"}, {"measurement": "Survival/Total", "setting": "male Balb/c mice; single dose 100 mg/kg intravenous, formulated according to Example 6, 100 mg/kg", "result": "All the mice died and 0/2"}, {"measurement": "percentage PKC inhibition", "setting": "PKC; 0.2 mM", "result": 80, "unit": "%"}, {"measurement": "percentage PKC inhibition", "setting": "PKC; […]", "result": 12, "unit": "%"}, {"measurement": "potency as PKC inhibitor relative to tamoxifen", "setting": "PKC; endoxifen versus tamoxifen", "result": "at least four fold more potent"}, {"measurement": "endoxifen plasma concentration compared to that after same dose of tamoxifen", "setting": "[2]", "result": 10, "unit": "fold"}, {"measurement": "concentration in the human plasma", "setting": "[1]; patients treated with tamoxifen", "result": 12.4, "unit": "ng/mL"}]}, {"molecule": "O=C(c1ccc(OCCN2CCCCC2)cc1)c1c(-c2ccc(O)cc2)sc2cc(O)ccc12", "note": "[raloxifene]", "values": [{"measurement": "reduction in risk of mild cognitive impairment", "setting": "patients", "result": 33, "unit": "%"}]}, {"molecule": "CC/C(=C(\\c1ccccc1)c1ccc(OCCN(C)C)cc1)c1ccccc1", "note": "[tamoxifen, reference compound]", "values": [{"measurement": "attenuation of levodopa-induced dyskinesias", "setting": "Parkinsonian monkeys", "result": 61, "unit": "%"}]}]}
